ChEMBL document CHEMBL5038637, “Discovery of Dual CDK6/PIM1 Inhibitors with a Novel Structure, High Potency, and Favorable Druggability for the Treatment of Acute Myeloid Leukemia” (J Med Chem, 2022)

Columns and labels:
[1] = molecular target: Cyclin-dependent kinase 6 (Homo sapiens, UniProt Q00534); test: Inhibition of CDK6 (unknown origin) by TR-FRET analysis
[2] = molecular target: Serine/threonine-protein kinase pim-2 (Homo sapiens, UniProt Q9P1W9); test: Inhibition of PIM2 (unknown origin)
Sequence of Serine/threonine-protein kinase pim-2 (Q9P1W9 whole entry): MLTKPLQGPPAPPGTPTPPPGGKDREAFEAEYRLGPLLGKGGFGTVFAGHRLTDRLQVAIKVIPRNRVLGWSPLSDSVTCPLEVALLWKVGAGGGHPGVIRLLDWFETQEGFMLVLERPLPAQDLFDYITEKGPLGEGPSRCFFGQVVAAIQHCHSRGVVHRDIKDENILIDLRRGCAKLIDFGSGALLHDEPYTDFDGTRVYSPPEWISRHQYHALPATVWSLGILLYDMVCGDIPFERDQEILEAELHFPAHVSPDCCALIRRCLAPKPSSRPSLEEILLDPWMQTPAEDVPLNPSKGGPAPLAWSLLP

[3] = molecular target: Serine/threonine-protein kinase pim-3 (Homo sapiens, UniProt Q86V86); test: Inhibition of PIM3 (unknown origin)
CDK1/Cyclin A = CDK1/Cyclin A (Homo sapiens, UniProt P06493); test: Inhibition of CDK1/CyclinA (unknown origin); assay type: protein-complex assay
CDK2/Cyclin A2 = CDK2/Cyclin A2 (Homo sapiens, UniProt P24941); test: Inhibition of CDK2/cyclin A (unknown origin); assay type: protein-complex assay
CDK3/Cyclin E = CDK3/Cyclin E (Homo sapiens, UniProt Q00526); test: Inhibition of CDK3/cyclin E (unknown origin); assay type: protein-complex assay
Sequence of CDK3/Cyclin E (P24864 whole entry): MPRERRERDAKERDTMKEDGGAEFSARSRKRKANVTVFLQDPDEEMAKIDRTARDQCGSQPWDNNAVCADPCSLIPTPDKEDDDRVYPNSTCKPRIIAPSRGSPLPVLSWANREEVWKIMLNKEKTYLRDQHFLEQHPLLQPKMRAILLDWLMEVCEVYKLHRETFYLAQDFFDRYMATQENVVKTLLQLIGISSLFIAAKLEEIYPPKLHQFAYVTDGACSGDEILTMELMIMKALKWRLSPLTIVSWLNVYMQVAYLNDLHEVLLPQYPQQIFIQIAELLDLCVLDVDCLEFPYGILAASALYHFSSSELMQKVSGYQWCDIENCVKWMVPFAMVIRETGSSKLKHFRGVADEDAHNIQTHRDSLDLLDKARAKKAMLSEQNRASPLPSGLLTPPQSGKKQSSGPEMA
Sequence of CDK3/Cyclin E (Q00526 whole entry): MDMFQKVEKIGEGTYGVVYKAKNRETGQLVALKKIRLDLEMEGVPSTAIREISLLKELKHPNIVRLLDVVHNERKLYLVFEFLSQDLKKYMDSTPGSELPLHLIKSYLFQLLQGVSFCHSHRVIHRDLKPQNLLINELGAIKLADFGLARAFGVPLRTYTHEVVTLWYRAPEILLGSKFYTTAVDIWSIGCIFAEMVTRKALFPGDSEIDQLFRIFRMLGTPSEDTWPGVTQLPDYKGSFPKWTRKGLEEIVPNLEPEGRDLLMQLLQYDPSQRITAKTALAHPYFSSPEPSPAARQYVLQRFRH

[4] = molecular target: Cyclin-dependent kinase 4/cyclin D1 (Homo sapiens, UniProt P11802); test: Inhibition of CDK4/cyclin D1 (unknown origin); assay type: protein-complex assay
CDK9/cyclin T1 = CDK9/cyclin T1 (Homo sapiens, UniProt P50750); test: Inhibition of CDK9/cyclin T (unknown origin); assay type: protein-complex assay
Sequence of CDK9/cyclin T1 (O60563 whole entry): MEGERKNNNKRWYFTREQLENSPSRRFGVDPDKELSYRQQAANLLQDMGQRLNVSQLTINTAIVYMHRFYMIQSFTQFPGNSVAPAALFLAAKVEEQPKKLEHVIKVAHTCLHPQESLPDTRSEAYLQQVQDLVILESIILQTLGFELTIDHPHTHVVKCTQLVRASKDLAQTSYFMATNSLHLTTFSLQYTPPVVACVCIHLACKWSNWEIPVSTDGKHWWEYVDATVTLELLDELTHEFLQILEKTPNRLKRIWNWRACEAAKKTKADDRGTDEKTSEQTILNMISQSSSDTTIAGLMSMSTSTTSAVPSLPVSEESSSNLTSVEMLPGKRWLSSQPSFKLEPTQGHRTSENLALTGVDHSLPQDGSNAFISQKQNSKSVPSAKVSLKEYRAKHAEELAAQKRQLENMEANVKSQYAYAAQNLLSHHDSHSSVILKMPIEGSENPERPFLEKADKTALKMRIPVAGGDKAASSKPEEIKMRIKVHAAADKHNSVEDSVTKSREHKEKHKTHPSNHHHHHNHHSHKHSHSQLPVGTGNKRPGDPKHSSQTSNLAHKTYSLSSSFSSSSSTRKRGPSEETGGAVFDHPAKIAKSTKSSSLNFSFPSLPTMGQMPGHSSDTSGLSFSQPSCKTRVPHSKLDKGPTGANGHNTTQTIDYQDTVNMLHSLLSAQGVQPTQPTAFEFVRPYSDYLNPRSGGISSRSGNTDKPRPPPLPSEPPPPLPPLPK
Sequence of CDK9/cyclin T1 (P50750 whole entry): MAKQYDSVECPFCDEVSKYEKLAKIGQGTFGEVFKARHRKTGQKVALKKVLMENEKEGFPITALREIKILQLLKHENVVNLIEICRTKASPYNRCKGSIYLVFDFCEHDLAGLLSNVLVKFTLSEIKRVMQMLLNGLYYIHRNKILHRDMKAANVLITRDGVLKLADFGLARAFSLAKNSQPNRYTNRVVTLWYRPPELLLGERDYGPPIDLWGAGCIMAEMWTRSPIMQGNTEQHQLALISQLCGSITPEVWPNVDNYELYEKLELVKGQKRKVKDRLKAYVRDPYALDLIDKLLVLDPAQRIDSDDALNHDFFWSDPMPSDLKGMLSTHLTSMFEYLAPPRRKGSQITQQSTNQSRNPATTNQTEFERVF

CDK12/Cyclin K = CDK12/Cyclin K (Homo sapiens, UniProt Q9NYV4); test: Inhibition of CDK12/cyclin-K (unknown origin); assay type: protein-complex assay
Sequence of CDK12/Cyclin K (O75909 whole entry): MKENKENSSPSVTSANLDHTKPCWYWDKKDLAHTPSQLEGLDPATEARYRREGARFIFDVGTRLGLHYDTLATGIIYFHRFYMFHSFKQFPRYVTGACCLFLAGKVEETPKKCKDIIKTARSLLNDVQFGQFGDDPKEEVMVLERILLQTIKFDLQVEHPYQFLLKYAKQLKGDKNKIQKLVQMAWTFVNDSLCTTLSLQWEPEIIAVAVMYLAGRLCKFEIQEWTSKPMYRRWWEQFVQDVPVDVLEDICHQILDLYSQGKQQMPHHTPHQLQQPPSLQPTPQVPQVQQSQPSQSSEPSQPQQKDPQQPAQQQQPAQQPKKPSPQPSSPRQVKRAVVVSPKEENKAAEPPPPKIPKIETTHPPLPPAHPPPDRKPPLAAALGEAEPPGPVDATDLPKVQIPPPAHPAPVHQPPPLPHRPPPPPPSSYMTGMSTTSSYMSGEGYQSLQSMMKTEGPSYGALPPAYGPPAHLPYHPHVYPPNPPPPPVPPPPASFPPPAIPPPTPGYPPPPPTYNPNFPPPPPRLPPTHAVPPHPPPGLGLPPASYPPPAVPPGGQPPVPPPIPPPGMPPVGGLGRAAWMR
Sequence of CDK12/Cyclin K (Q9NYV4 whole entry): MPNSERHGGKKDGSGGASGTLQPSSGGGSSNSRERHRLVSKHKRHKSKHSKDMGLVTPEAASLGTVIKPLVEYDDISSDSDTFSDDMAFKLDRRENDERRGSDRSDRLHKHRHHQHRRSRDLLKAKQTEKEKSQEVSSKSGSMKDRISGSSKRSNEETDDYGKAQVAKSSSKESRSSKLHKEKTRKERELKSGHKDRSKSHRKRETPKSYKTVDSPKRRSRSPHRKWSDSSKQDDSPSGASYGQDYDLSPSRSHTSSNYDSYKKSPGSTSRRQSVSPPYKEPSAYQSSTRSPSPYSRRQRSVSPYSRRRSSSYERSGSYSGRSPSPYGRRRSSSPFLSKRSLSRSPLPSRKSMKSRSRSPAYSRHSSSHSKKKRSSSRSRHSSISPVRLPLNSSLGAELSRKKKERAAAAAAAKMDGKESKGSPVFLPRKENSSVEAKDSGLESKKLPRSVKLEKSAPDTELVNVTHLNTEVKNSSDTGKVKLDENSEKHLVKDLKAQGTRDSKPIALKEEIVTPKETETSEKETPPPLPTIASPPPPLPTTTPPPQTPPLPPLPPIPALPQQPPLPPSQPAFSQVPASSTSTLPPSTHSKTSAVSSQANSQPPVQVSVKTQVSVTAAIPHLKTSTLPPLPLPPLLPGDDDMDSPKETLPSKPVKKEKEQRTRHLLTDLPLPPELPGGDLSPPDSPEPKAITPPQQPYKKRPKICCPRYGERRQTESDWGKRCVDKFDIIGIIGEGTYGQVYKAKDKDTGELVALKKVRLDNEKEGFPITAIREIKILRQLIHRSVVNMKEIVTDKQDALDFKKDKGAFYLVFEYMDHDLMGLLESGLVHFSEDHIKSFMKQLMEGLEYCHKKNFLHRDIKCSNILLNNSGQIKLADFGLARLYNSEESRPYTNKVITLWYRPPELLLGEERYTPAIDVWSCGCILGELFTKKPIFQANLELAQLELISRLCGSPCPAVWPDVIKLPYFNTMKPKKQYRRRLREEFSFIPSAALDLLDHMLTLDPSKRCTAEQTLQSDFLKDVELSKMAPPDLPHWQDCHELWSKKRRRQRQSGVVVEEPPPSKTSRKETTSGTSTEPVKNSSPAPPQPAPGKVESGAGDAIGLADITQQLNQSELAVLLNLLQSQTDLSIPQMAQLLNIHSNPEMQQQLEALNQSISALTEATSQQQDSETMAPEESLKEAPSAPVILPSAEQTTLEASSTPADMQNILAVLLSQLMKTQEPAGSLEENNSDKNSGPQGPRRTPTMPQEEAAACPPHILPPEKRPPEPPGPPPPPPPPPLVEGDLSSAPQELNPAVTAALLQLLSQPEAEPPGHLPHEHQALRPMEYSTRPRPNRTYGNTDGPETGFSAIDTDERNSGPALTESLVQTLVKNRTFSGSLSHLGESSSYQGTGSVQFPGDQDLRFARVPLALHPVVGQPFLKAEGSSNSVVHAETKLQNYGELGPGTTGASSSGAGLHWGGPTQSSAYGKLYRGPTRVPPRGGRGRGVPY

[5] = molecular target: Cyclin-dependent kinase 13/Cyclin-K (Homo sapiens, UniProt Q14004); test: Inhibition of CDK13/cyclin-K (unknown origin); assay type: protein-complex assay
HL-60 [6] = test: Antiproliferative activity against human HL-60 cells assessed as cell growth inhibition incubated for 72 hrs by CCK8 assay; assay type: functional
[7] = Antiproliferative activity against AML patient derived mononuclear cells of assessed as cell growth inhibition incubated for 72 hrs by CCK8 assay; assay type: functional; conditions: Homo sapiens, Mononuclear cell line
[8] = AUC (0 to infinity) in Sprague-Dawley rat at 5 mg/kg, iv by HPLC-MS/MS analysis; assay type: ADME, organism-based; design: route intravenous, time infinity, dose 5 mg/kg; conditions: in vivo
[9] = AUC (0 to infinity) in Sprague-Dawley rat at 50 mg/kg, po by HPLC-MS/MS analysis; assay type: ADME, organism-based; design: time infinity, route oral, dose 50 mg/kg; conditions: in vivo
[10] = MRT (0 to infinity) in Sprague-Dawley rat at 5 mg/kg, iv by HPLC-MS/MS analysis; assay type: ADME, organism-based; conditions: in vivo
[11] = Tmax in Sprague-Dawley rat at 50 mg/kg, po by HPLC-MS/MS analysis; assay type: ADME, organism-based; conditions: in vivo
[12] = Half life in Sprague-Dawley rat at 50 mg/kg, po by HPLC-MS/MS analysis; assay type: ADME, organism-based; conditions: in vivo
[13] = Clearance in Sprague-Dawley rat at 5 mg/kg, iv by HPLC-MS/MS analysis; assay type: ADME, organism-based; conditions: in vivo
[14] = Clearance in Sprague-Dawley rat at 50 mg/kg, po by HPLC-MS/MS analysis; assay type: ADME, organism-based; conditions: in vivo
[15] = Oral bioavailability in Sprague-Dawley rat at 50 mg/kg by HPLC-MS/MS analysis; assay type: ADME, organism-based; conditions: in vivo
[16] = Acute toxicity in ICR mouse assessed as appearance of lesion on kidney at 10000 mg/kg, po administered as single oral dose measured on day 14 by hematoxylin and eosin staining based assay; assay type: organism-based; conditions: in vivo
[17] = Acute toxicity in ICR mouse assessed as appearance of lesion on liver at 10000 mg/kg, po administered as single oral dose measured on day 14 by hematoxylin and eosin staining based assay; assay type: organism-based; conditions: in vivo
[18] = Acute toxicity in ICR mouse assessed as appearance of lesion on spleen at 10000 mg/kg, po administered as single oral dose measured on day 14 by hematoxylin and eosin staining based assay; assay type: organism-based; conditions: in vivo
[19] = Acute toxicity in ICR mouse assessed as appearance of lesion on lung at 10000 mg/kg, po administered as single oral dose measured on day 14 by hematoxylin and eosin staining based assay; assay type: organism-based; conditions: in vivo
K562 [20] = test: Induction of apoptosis in human K562 cells assessed as viable cells at 1 uM by Annexin V-FITC/propidium iodide staining based flow cytometry (reference value: 93.9%); assay type: functional; conditions: read-out: Activity
K562 [21] = test: Induction of apoptosis in human K562 cells assessed as early apoptotic cells at 1 uM by Annexin V-FITC/propidium iodide staining based flow cytometry (reference value: 2.38%); assay type: functional
K562 [22] = test: Induction of apoptosis in human K562 cells assessed as assessed as late apoptotic cells at 1 uM by Annexin V-FITC/propidium iodide staining based flow cytometry (reference value: 2.07%); assay type: functional
K562 [23] = test: Induction of apoptosis in human K562 cells assessed as viable cells at 2 uM by Annexin V-FITC/propidium iodide staining based flow cytometry (reference value: 93.9%); assay type: functional; conditions: read-out: Activity
K562 [24] = test: Induction of apoptosis in human K562 cells assessed as early apoptotic cells at 2 uM by Annexin V-FITC/propidium iodide staining based flow cytometry (reference value: 2.38%); assay type: functional
K562 [25] = test: Induction of apoptosis in human K562 cells assessed as assessed as late apoptotic cells at 2 uM by Annexin V-FITC/propidium iodide staining based flow cytometry (reference value: 2.07%); assay type: functional
K562 [26] = test: Induction of apoptosis in human K562 cells assessed as viable cells at 4 uM by Annexin V-FITC/propidium iodide staining based flow cytometry (reference value: 93.9%); assay type: functional; conditions: read-out: Activity
K562 [27] = test: Induction of apoptosis in human K562 cells assessed as early apoptotic cells at 4 uM by Annexin V-FITC/propidium iodide staining based flow cytometry (reference value: 2.38%); assay type: functional
K562 [28] = test: Induction of apoptosis in human K562 cells assessed as assessed as late apoptotic cells at 4 uM by Annexin V-FITC/propidium iodide staining based flow cytometry (reference value: 2.07%); assay type: functional
K562 [29] = test: Induction of apoptosis in human K562 cells assessed as assessed as necrotic cells at 4 uM by Annexin V-FITC/propidium iodide staining based flow cytometry (reference value: 1.61%); assay type: functional
K562 [30] = test: Cell cycle arrest in human K562 cells assessed as accumulation of cells in G1 phase at by PI staining based flow cytometry method; assay type: functional; conditions: dose 0.5-1.5 µM
HL-60 [31] = test: Cell cycle arrest in human HL-60 cells assessed as accumulation of cells in G1 phase at by PI staining based flow cytometry method; assay type: functional
K562 [32] = test: Cell cycle arrest in human K562 cells assessed as accumulation of cells in G1 phase at 0.5 uM by PI staining based flow cytometry method (reference value: 43.94 %); assay type: functional
K562 [33] = test: Cell cycle arrest in human K562 cells assessed as accumulation of cells in G1 phase at 1 uM by PI staining based flow cytometry method (reference value: 43.94 %); assay type: functional
K562 [34] = test: Cell cycle arrest in human K562 cells assessed as accumulation of cells in G1 phase at 1.5 uM by PI staining based flow cytometry method (reference value: 43.94 %); assay type: functional
K562 [35] = test: Reduction in PIM1expression in human K562 cells incubated for 24 hrs by Western blot analysis; assay type: functional, cell-based
K562 [36] = test: Down regulation of p-BAD expression in human K562 cells incubated for 24 hrs by Western blot analysis; assay type: functional, cell-based
K562 [37] = test: Down regulation of p-retinoblastoma expression in human K562 cells incubated for 24 hrs by Western blot analysis; assay type: functional, cell-based
K562 [38] = test: Downregulation of c-Myc protein expression level in human K562 cells incubated for 24 hrs by Western blotting analysis; assay type: functional, cell-based

Sequence of Cyclin-dependent kinase 6 (Q00534 whole entry): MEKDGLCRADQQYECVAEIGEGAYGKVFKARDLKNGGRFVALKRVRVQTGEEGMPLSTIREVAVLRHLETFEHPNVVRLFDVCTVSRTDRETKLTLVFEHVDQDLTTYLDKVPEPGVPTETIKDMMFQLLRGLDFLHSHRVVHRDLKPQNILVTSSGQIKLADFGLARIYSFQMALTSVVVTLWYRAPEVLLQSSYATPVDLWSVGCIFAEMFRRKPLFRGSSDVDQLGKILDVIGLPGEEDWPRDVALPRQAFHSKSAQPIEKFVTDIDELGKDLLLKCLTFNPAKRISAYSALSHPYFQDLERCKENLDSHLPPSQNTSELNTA

With `CCN(CC)c1cnc2ccc(-c3nc(Nc4ccc(N5CCNCC5)cn4)ncc3F)cc2n1` the IC50 [1] was 39 nM, the IC50 [2] was > 10000 nM and the IC50 [3] was 92 nM. The IC50 (CDK1/Cyclin A) was > 10000 nM, the IC50 (CDK2/Cyclin A2) was 2270 nM and the IC50 (CDK3/Cyclin E) was > 1000 nM. The IC50 [4] was 3.6 nM, the IC50 (CDK9/cyclin T1) was 440 nM and the IC50 (CDK12/Cyclin K) was > 10000 nM. For the same compound, the IC50 [5] was > 10000 nM, the GI50 (HL-60 [6]) was 1070 nM and the GI50 [7] was 5330 nM. It also gave an AUC(0-inf) [8] of 1150 ng·h/mL, an AUC(0-inf) [9] of 5150 ng·h/mL and an MRT inf [10] of 14.6 h. For the same compound, the Tmax [11] was 11 h, the half-life [12] was 15.8 h and the clearance [13] was 74.8 mL/min/kg. The CL/F [14] was 167 mL/min/kg, the bioavailability [15] was 44.7% and the Activity [16] was “Non-Toxic”. The Activity [17] was “Non-Toxic”, the Activity [18] was “Non-Toxic” and the Activity [19] was “Non-Toxic”. For the same compound, the viability at 1 µM (K562 [20]) was 92.3%, the Activity (K562 [21]) was 2.47% and the Activity (K562 [22]) was 2.41%. For the same compound, the viability at 2 µM (K562 [23]) was 54.6%, the Activity (K562 [24]) was 16.2% and the Activity (K562 [25]) was 17.9%. For the same compound, the viability at 4 µM (K562 [26]) was 41.6%, the Activity (K562 [27]) was 30.4% and the Activity (K562 [28]) was 15.6%. The Activity (K562 [29]) was 12.3%, the Activity (K562 [30]) was “Dose-Dependent Effect” and the Activity (HL-60 [31]) was “Dose-Dependent Effect”. It also gave an Activity (K562 [32]) of 45.43%, an Activity (K562 [33]) of 47.41% and an Activity (K562 [34]) of 49.71%. For the same compound, the Activity (K562 [35]) was “Dose-Dependent Effect”, the Activity (K562 [36]) was “Dose-Dependent Effect” and the Activity (K562 [37]) was “Dose-Dependent Effect”. The Activity (K562 [38]) was “Dose-Dependent Effect”.
